From patent publication US10570179B2, “Substituted urea depsipeptide analogs as activators of the CLPP endopeptidase” (priority 2016, dated 2020)
In brackets after ≈: the same amount, converted by molar mass. Read-outs that look alike come from different tables or passages of the source. Numbered stars: 1 amine (or outer) side, 2 acyl side, 3 side chain; on linkers, the order of the positions; unused ones are H or OH. Bridge positions count the residues as written; N and C are the ends. Square brackets hold non-standard residues; d marks the D form. Peptide text beside a SMILES is read from it. * marks the point of attachment. Piperazine(2S-CO,4-Me) = CN1CCN[C@H](C(=O)O)C1; Phe(3,5-F2) = N[C@@H](Cc1cc(F)cc(F)c1)C(=O)O; NH(1-Me-indolin-5-yl) = CN1CCc2cc(N*)ccc21; Phe(3-Cl) = N[C@@H](Cc1cccc(Cl)c1)C(=O)O; Morpholine(3S-CO) = O=C(O)[C@@H]1COCCN1; Phe(3-Me) = Cc1cccc(C[C@H](N)C(=O)O)c1; X4 = O=C1CN([*:1])[C@H](C(=O)[*:2])CN1; NH(4-Cl-2-F-phenyl) = Fc1cc(Cl)ccc1N*; Pro(4R-Me) = C[C@H]1CN[C@H](C(=O)O)C1; X1 = O=C([C@@H]1CSCCN1[*:1])[*:2]; aThr = C[C@H](O)[C@H](N)C(=O)O; CO = O=C([*:1])[*:2]

Legend:
S. aureus ATCC 29213 = assay: Minimal inhibitory concentration, microbroth dilution; assay type: cell-based; settings: Staphylococcus aureus
Summary of the method: (§1)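 Susceptibility testing used the CLSI dilution standard, with bacteria at ~10^5 cfu/mL exposed to a two-fold compound series beginning at 200 μM final. The endpoint is the lowest concentration showing no growth after overnight incubation (37 °C, aerobic).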

E. faecails = assay: as above; assay type: cell-based; settings: Enterococcus faecalis
Summary of the method: as §1

S. aureus USA 300 = assay: as above; assay type: cell-based; settings: Staphylococcus aureus
Summary of the method: as §1

MRSA NRS70 = assay: as above; assay type: cell-based; settings: Staphylococcus aureus
Summary of the method: as §1

Plasma stability assay = assay type: in vitro ADME, mouse; settings: for Mouse: 10 μM
Method: The plasma stability property of early drug discovery compounds can influence the in vivo efficacy of the test compounds/drugs. Human and/or mouse plasma degradation is determined using multiple time points to monitor the rate of disappearance of the parent compound during incubation.
Sample preparation for plasma stability was modified from Di et al. (2005) Int. J. Pharm. 297(1-2): 110-119. A set of incubation times of 0, 3, 24, and 48 hour were used. DMSO stock solutions of test compounds were prepared at 10 mM concentration. 1.8 μL of each test compound was each added directly to 1.8 mL of human/mouse plasma to get the final concentration of 10 μM. This compound/matrix was mixed and 70 μL was transferred to 8 time points plates (each in triplicate wells). For the Time 0 plate, 210 μL of cold acetonitrile with internal standard (4 μg/mL warfarin) was added to each well and no incubation needed. For other seven time points' plate, the plate was incubated at 37° C. for required time, followed by quenching of the reaction by adding 210 μL of cold acetonitrile with internal standard (4 μg/ml warfarin) to each well. All of the plates were sealed and mixed well at 600 rpm for 10 min and were centrifuged at 4000 rpm for 20 min. The supernatants (120 μL) were transferred to analytical plates for analysis by LCMS. Conditions for Waters ACQUITY-UPLC-MS-UV system was described separately. The plasma stability was evaluated via the half-life from least-squares fit of the multiple time points based on first-order kinetics.

S. aureus ClpP (Sa-ClpP) = target: T1, S. aureus ClpP (Sa-ClpP) (Staphylococcus aureus, UniProt Q2G036); assay: Casein-BODIPY digestion assay (ClpP activation); assay type: biochemical
T1 construct: made in house; host or cells: E. coli BL21 (DE3)
T1 sequence (Q2G036 whole entry): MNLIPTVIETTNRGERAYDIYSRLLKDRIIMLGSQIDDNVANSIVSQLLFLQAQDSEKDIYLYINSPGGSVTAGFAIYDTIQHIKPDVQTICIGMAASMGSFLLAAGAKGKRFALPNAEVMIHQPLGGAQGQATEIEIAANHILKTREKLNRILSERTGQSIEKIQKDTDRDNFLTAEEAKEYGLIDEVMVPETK

[1] = ATCC29213, MIC, read-out: Minimal Inhibitory Concentrations (μM) S. aureus ATCC 29213
[2] = MIC, read-out: Minimal Inhibitory Concentrations (μM) E. faecails
[3] = USA300, MIC, read-out: Minimal Inhibitory Concentrations (μM) S. aureus USA 300
[4] = MIC, read-out: Minimal Inhibitory Concentrations (μM) MRSA NRS70

Structure (SMILES)	MIC (S. aureus ATCC 29213; [1])	MIC (E. faecails; [2])	MIC (S. aureus USA 300; [3])	MIC (MRSA NRS70; [4])	Mouse (Plasma stability assay)	EC50 (S. aureus ClpP (Sa-ClpP))	MIC (S. aureus ATCC 29213; ATCC29213, read-out: Minimal Inhibitory Concentrations (μM) S. aureus ATCC 29213, MIC)	MIC (E. faecails; read-out: Minimal Inhibitory Concentrations (μM) E. faecails, MIC)	MIC (S. aureus USA 300; USA300, read-out: Minimal Inhibitory Concentrations (μM) S. aureus USA 300, MIC)	MIC (MRSA NRS70; read-out: Minimal Inhibitory Concentrations (μM) MRSA NRS70, MIC)	Mouse (hr) (Plasma stability assay; plasma stability half-life, mouse plasma, 37° C.)
Cc1cccc(C[C@H](NC(=O)Nc2ccc3c(c2)OCO3)C(=O)N[C@H]2COC(=O)[C@@H]3C[C@@H](C)CN3C(=O)[C@H](C)NC(=O)[C@@H]3CCCCN3C(=O)[C@@H]3CCCN3C2=O)c1 [Compound 23, (S)-2-(3-(BENZO[D][1,3]DIOXOL-5-YL)UREIDO)-N-((2R,6S,8AS,14AS,20S,23AS)-2,6-DIMETHYL-5,8,14,19,23-PENTAOXOOCTADECAHYDRO-1H,5H,14H,19H-PYRIDO[2,1-I]DIPYRROLO[2,1-C:2′,1′-L][1]OXA[4,7,10,13]TETRAAZACYCLOHEXADECIN-20-YL)-3-(M-TOLYL)PROPANAMIDE]	1.25 µM (≈ 1 µg/mL)	0.625 µM (≈ 0.501 µg/mL)	1.25 µM (≈ 1 µg/mL)	0.625 µM (≈ 0.501 µg/mL)	27.31 h	350 ± 90 nM					
Cc1cccc(C[C@H](NC(=O)Nc2ccc(Cl)cc2F)C(=O)N[C@@H]2C(=O)N3CCC[C@H]3C(=O)N3CC(=O)NC[C@H]3C(=O)N[C@@H](C)C(=O)N3C[C@H](C)C[C@H]3C(=O)O[C@H]2C)c1 [Compound 20, (S)-2-(3-(4-CHLORO-2-FLUOROPHENYL)UREIDO)-3-(M-TOLYL)-N-((6AS,12S,13S,15AS,17R,21S,23AS)-13,17,21-TRIMETHYL-3,6,11,15,20,23-HEXAOXOOCTADECAHYDRO-2H,6H,11H,15H-PYRAZINO[2,1-I]DIPYRROLO[2,1-C:2′,1′-L][1]OXA[4,7,10,13]TETRAAZACYCLOHEXADECIN-12-YL)PROPANAMIDE] ({NH(4-Cl-2-F-phenyl)-CO}-[Phe(3-Me)][aThr]P[X4]A[Pro(4R-Me)]; ester 2-C)	1.25 µM (≈ 1.05 µg/mL)	2.5 µM (≈ 2.1 µg/mL)	5 µM (≈ 4.2 µg/mL)	5 µM (≈ 4.2 µg/mL)	13.2 h	710 ± 80 nM					
C[C@@H]1C[C@H]2C(=O)O[C@@H](C)[C@H](NC(=O)[C@H](Cc3cccc(Cl)c3)NC(=O)Nc3ccc(Cl)cc3F)C(=O)N3CCC[C@H]3C(=O)N3CCN(C)C[C@H]3C(=O)N[C@@H](C)C(=O)N2C1 [Compound 33] ({NH(4-Cl-2-F-phenyl)-CO}-[Phe(3-Cl)][aThr]P[Piperazine(2S-CO,4-Me)]A[Pro(4R-Me)]; ester 2-C)	0.078 µM (≈ 0.0671 µg/mL)	0.078 µM (≈ 0.0671 µg/mL)	0.078 µM (≈ 0.0671 µg/mL)	0.039 µM (≈ 0.0335 µg/mL)	>50 h	200 ± 200 nM					
Cc1cccc(C[C@H](NC(=O)Nc2ccc(Cl)cc2F)C(=O)N[C@@H]2C(=O)N3CCC[C@H]3C(=O)N3CCSC[C@H]3C(=O)N[C@@H](C)C(=O)N3C[C@H](C)C[C@H]3C(=O)O[C@H]2C)c1 [Compound 38, (S)-2-(3-(4-CHLORO-2-FLUOROPHENYL)UREIDO)-3-(M-TOLYL)-N-((6AS,12S,13S,15AS,17R,21S,23AR)-13,17,21-TRIMETHYL-6,11,15,20,23-PENTAOXOOCTADECAHYDRO-6H,11H,15H-DIPYRROLO[2,1-C:2′,1′-L][1,4]THIAZINO[3,4-I][1]OXA[4,7,10,13]TETRAAZACYCLOHEXADECIN-12-YL)PROPANAMIDE] ({NH(4-Cl-2-F-phenyl)-CO}-[Phe(3-Me)][aThr]P[X1]A[Pro(4R-Me)]; ester 2-C)	0.039 µM (≈ 0.0329 µg/mL)	0.078 µM (≈ 0.0657 µg/mL)	0.078 µM (≈ 0.0657 µg/mL)	0.039 µM (≈ 0.0329 µg/mL)	>50 h						
C[C@@H]1C[C@H]2C(=O)O[C@@H](C)[C@H](NC(=O)[C@H](Cc3cc(F)cc(F)c3)NC(=O)Nc3ccc4c(c3)CCN4C)C(=O)N3CCC[C@H]3C(=O)N3CCOC[C@H]3C(=O)N[C@@H](C)C(=O)N2C1 [Compound 32] ({NH(1-Me-indolin-5-yl)-CO}-[Phe(3,5-F2)][aThr]P[Morpholine(3S-CO)]A[Pro(4R-Me)]; ester 2-C)							0.156 µM (≈ 0.133 µg/mL)	0.039 µM (≈ 0.0332 µg/mL)	0.156 µM (≈ 0.133 µg/mL)	0.078 µM (≈ 0.0664 µg/mL)	>>48 hr
